From publication PMC7125586 (Febs Letters, 2007)

Experiments:
[1] = molecular target: furin (recombinant soluble hfurin) (Homo sapiens, UniProt P09958); test: Inhibition assay of furin with fluorogenic substrate Pyr-RTKR-MCA; format: biochemical; settings: up to 100 μM heparin (20 μM or 100 μM); fluorescence
gp160 processing = settings: cell-permeable peptide; cited from earlier work

Sequence of furin (recombinant soluble hfurin) (P09958 108-715 limits assumed): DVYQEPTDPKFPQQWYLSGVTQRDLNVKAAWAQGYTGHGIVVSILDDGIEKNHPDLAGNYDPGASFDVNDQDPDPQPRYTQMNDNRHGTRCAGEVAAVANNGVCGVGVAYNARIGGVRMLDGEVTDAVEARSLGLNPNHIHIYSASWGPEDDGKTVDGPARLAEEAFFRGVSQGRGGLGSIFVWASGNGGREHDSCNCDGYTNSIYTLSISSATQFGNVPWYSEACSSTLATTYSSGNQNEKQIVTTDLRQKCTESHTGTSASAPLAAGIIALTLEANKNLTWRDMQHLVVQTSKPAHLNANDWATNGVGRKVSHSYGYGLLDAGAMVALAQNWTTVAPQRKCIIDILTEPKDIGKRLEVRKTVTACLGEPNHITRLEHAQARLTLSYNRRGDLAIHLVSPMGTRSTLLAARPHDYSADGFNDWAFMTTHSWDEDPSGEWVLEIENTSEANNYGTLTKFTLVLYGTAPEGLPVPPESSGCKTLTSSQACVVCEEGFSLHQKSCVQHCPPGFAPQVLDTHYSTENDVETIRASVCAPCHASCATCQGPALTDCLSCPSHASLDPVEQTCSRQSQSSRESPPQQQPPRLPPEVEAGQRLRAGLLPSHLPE

heparin
Influence on furin activity on Pyr-RTKR-MCA processing [1]: did not influence furin activity

KIEPLGVAPTKAKRRVVQREKR [22mer]
Interference with gp160 processing (gp160 processing): interferes with gp160 processing
